# Source: patent publication US20030220369A1, “Heterocyclic sulfonamide derivatives and their use for potentiating glutamate receptor function” (priority 2003, published 2003)
compound,measurement,value
"CC(C)S(=O)(=O)NCC(C)(F)c1ccc(-c2cccc3c2CC(=O)N3)cc1 (stereo not shown) [Example 9, 4-[4-(1-fluoro-1-methyl-2-{[methylethyl)sulfonylamino}-ethyl)phenyl]indolin-2one]",melting point,86 to 87 °C
